The values below come from US20110212997A1, “PIPERIDINE-4-ACETAMIDE DERIVATIVES AND THEIR USE AS MONOAMINE NEUROTRANSMITTER RE-UPTAKE INHIBITORS” (NEUROSEARCH A/S, priority 2008, published 2011).

Where a name gives a salt, the structure may show the parent alone.

For one data set, the target named is T1, dopamine (DA) reuptake in synaptosomes (Rattus norvegicus, UniProt P23977).
T1 construct: in synaptosomes as described in WO 97/16451; from tissue
T1 sequence (P23977 whole entry): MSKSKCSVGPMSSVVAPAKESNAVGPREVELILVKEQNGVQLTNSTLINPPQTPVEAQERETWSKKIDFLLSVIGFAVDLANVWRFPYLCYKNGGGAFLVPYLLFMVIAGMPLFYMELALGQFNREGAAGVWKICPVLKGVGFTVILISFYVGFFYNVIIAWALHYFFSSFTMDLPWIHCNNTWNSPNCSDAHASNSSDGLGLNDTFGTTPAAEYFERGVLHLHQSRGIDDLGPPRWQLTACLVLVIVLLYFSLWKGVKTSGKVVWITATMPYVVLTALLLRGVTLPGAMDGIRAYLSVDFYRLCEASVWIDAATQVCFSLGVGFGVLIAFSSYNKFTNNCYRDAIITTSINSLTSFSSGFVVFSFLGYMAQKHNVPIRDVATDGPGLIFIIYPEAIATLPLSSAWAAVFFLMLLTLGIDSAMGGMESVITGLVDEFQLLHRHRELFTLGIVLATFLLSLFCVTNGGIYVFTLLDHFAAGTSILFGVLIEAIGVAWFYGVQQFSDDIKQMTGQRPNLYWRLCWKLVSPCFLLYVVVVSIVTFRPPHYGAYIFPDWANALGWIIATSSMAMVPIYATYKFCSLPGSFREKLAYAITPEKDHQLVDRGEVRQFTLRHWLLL
Nature of the data set: Inhibition of DA reuptake in synaptosomes. It counts as biochemical. Conditions: synaptosomes, 3H-DA; read-out: DA-uptake IC50. How it is done: (§1) Compounds were tested for their ability to inhibit the reuptake of the monoamine neurotransmitters dopamine (DA) noradrenaline (NA) and serotonine (5-HT) in synaptosomes as described in WO 97/16451 (NeuroSearch NS).
(§2) The test values are given as IC50 (the concentration (μM) of the test substance which inhibits the specific binding of ^3H-DA, ^3H-NA, or ^3H-5-HT by 50%).
Consider `CCN(C(=O)CC1CCNCC1)c1ccc(Cl)c(Br)c1` [Compound C13, N-(3-Bromo-4-chloro-phenyl)-N-ethyl-2-piperidin-4-yl-acetamide], for which the 50% inhibitory concentration (IC50) was 8 nM. On to `CCN(C(=O)CC1CCNCC1)c1cccc(Cl)c1Cl` [Compound C6, N-(2,3-Dichloro-phenyl)-N-ethyl-2-piperidin-4-yl-acetamide], for which the IC50 is more than 1000 nM.

The target in a further data set is T2, noradrenaline (NA) reuptake in synaptosomes (Rattus norvegicus, UniProt Q63380).
T2 construct: in synaptosomes as described in WO 97/16451; from tissue
T2 sequence (Q63380 1-617): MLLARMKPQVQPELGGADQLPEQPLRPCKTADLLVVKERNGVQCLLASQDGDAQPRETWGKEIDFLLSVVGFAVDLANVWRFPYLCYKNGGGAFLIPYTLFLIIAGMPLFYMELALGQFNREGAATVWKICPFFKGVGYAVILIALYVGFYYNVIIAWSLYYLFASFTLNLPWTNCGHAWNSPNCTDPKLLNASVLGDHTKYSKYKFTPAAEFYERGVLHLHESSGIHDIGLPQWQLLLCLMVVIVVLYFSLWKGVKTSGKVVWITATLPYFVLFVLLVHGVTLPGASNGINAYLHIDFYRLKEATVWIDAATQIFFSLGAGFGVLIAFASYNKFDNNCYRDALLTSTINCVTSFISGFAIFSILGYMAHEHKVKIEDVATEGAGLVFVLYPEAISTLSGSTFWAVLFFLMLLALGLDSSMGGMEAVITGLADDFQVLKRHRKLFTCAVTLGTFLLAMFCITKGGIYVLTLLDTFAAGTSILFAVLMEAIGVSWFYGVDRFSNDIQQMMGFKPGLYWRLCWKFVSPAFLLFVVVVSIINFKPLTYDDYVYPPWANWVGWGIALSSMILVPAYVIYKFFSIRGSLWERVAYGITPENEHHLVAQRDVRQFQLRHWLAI
Put plainly: Inhibition of NA reuptake in synaptosomes. It counts as biochemical. Conditions: synaptosomes, 3H-NA; read-out: NA-uptake IC50. How it is done: as §1, §2
For the molecule `CCN(C(=O)CC1CCNCC1)c1ccc(Cl)c(Br)c1` [Compound C13, N-(3-Bromo-4-chloro-phenyl)-N-ethyl-2-piperidin-4-yl-acetamide], the half-inhibitory concentration (IC50) is 1.3 nM. Still for that read-out and setting: the value for `CCN(C(=O)CC1CCNCC1)c1cccc(Cl)c1Cl` [Compound C6, N-(2,3-Dichloro-phenyl)-N-ethyl-2-piperidin-4-yl-acetamide] was 910 nM.

Tested on in a further data set: not given
Assay: not given
Settings: not given
For the molecule `CCN(C(=O)CC1CCN(C)CC1)c1ccc(Cl)c(Cl)c1Cl` (as salt: fumaric acid salt) [Compound D18, N-Ethyl-2-(1-methyl-piperidin-4-yl)-N-(2,3,4-trichloro-phenyl)-acetamide], the melting point lay within 181 to 183 °C. On the same count and under the same terms, the same measure for `CCN(C(=O)CC1CCNCC1)c1ccc(Cl)c(Cl)c1Cl` (as salt: fumaric acid salt) [Compound C10, N-Ethyl-2-piperidin-4-yl-N-(2,3,4-trichloro-phenyl)-acetamide]: 62 to 64 °C; for `CCN(C(=O)CC1CCN(C)CC1)c1cccc2ccccc12` (as salt: fumaric acid salt) [Compound D3, N-Ethyl-2-(1-methyl-piperidin-4-yl)-N-naphthalen-1-yl-acetamide]: 63 to 66 °C. Still for that read-out and setting: the value for `CCCN(C(=O)CC1CCN(C)CC1)c1ccc(Cl)c(Cl)c1` (as salt: fumaric acid salt) [Compound D20, N-(3,4-Dichloro-phenyl)-2-(1-methyl-piperidin-4-yl)-N-propyl-acetamide] was 144 to 146 °C. The same measure, in the same setting: the same measure for `CCN(C(=O)CC1CCN(C)CC1)c1cccc(Cl)c1Cl` (as salt: fumaric acid salt) [Compound D8, N-(2,3-Dichloro-phenyl)-N-ethyl-2-(1-methyl-piperidin-4-yl)-acetamide]: 51 to 53 °C; for `CCN(C(=O)CC1CCNCC1)c1ccc(Br)c(Br)c1` (as salt: fumaric acid salt) [Compound C11, N-(3,4-Dibromo-phenyl)-N-ethyl-2-piperidin-4-yl-acetamide]: 58 to 60 °C; for `CCCN(C(=O)CC1CCNCC1)c1ccc(Cl)c(Cl)c1` (as salt: fumaric acid salt) [Compound C12, N-(3,4-Dichloro-phenyl)-2-piperidin-4-yl-N-propyl-acetamide]: 55 to 58 °C. Consider `CCN(C(=O)CC1CCN(C)CC1)c1ccc(Cl)cc1Cl` (as salt: fumaric acid salt) [Compound D14, N-(2,4-Dichloro-phenyl)-N-ethyl-2-(1-methyl-piperidin-4-yl)-acetamide], for which the melting point lay within 175 to 177 °C. `CCN(C(=O)CC1CCNCC1)c1ccc(Cl)cc1Cl` (as salt: fumaric acid salt) [Compound D5, N-(2,4-Dichloro-phenyl)-N-ethyl-2-piperidin-4-yl-acetamide] had a melting point of 112 to 114 °C. The same measure, in the same setting: the value for `CCN(C(=O)CC1CCNCC1)c1ccc(Br)c(Cl)c1` (as salt: fumaric acid salt) [Compound D4, N-(4-Bromo-3-chloro-phenyl)-N-ethyl-2-piperidin-4-yl-acetamide] was 159 to 161 °C; that for `CCN(C(=O)CC1CCN(C)CC1)c1c(Cl)cccc1Cl` (as salt: fumaric acid salt) [Compound D16, N-(2,6-Dichloro-phenyl)-N-ethyl-2-(1-methyl-piperidin-4-yl)-acetamide] was 167 to 169 °C. Still for that read-out and setting: the value for `CCN(C(=O)CC1CCNCC1)c1ccc(Cl)c(Br)c1` (as salt: fumaric acid salt) [Compound C13, N-(3-Bromo-4-chloro-phenyl)-N-ethyl-2-piperidin-4-yl-acetamide] was 141 to 143 °C; that for `CN1CCC(CC(=O)Nc2ccc(Cl)c(Cl)c2)CC1` (as salt: fumaric acid salt) [Compound D6, N-(3,4-Dichloro-phenyl)-2-(1-methyl-piperidin-4-yl)-acetamide] was 180 to 183 °C. The same measure, in the same setting: the same measure for `CCN(C(=O)CC1CCNCC1)c1c(Cl)cccc1Cl` (as salt: fumaric acid salt) [Compound C8, N-(2,6-Dichloro-phenyl)-N-ethyl-2-piperidin-4-yl-acetamide]: 167 to 169 °C. `CCN(C(=O)CC1CCNCC1)c1cc(Cl)cc(Cl)c1` (as salt: fumaric acid salt) [Compound C9, N-(3,5-Dichloro-phenyl)-N-ethyl-2-piperidin-4-yl-acetamide]: the melting point fell in the range of 151 to 153 °C. Molecule `CCN(C(=O)CC1CCN(C)CC1)c1ccc(Cl)c(Cl)c1` (as salt: hydrochloric acid salt) [Compound D1, N-(3,4-Dichloro-phenyl)-N-ethyl-2-(1-methyl-piperidin-4-yl)-acetamide] had a melting point of 153 to 155 °C. The same measure, in the same setting: the value for `CN1CCC(CC(=O)N(C)c2ccc(Cl)c(Cl)c2)CC1` (as salt: fumaric acid salt) [Compound D12, N-(3,4-Dichloro-phenyl)-N-methyl-2-(1-methyl-piperidin-4-yl)-acetamide] was 57 to 59 °C; that for `CCN(C(=O)CC1CCNCC1)c1cc(Cl)ccc1Cl` (as salt: fumaric acid salt) [Compound C7, N-(2,5-Dichloro-phenyl)-N-ethyl-2-piperidin-4-yl-acetamide] was 190 to 192 °C.

The target in a further data set is T3, serotonine (5-HT) reuptake in synaptosomes (Rattus norvegicus, UniProt P31652).
T3 construct: serotonine (5-HT) in synaptosomes as described in WO 97/16451; from tissue
T3 sequence (P31652 whole entry): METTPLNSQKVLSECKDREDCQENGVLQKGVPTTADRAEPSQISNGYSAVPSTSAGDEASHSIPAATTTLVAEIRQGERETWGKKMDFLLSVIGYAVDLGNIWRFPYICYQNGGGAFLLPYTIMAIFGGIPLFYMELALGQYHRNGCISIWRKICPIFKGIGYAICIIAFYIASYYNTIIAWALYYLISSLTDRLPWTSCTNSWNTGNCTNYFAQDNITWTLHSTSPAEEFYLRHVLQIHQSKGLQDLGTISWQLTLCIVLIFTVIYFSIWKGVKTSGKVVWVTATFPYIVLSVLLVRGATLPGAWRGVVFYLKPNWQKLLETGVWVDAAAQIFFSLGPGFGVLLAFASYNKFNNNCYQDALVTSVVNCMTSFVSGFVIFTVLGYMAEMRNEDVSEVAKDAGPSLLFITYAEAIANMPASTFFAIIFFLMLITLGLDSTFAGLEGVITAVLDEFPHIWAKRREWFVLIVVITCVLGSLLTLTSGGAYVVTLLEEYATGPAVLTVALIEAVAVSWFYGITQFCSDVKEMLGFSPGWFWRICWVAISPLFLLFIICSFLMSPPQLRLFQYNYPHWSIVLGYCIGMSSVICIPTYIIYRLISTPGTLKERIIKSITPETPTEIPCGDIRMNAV
Put plainly: Inhibition of 5-HT reuptake in synaptosomes. In kind it is biochemical. The conditions noted are these: 3H-5-HT, read-out: 5-HT-uptake IC50. The protocol:
as §1, §2
In the case of `CCN(C(=O)CC1CCNCC1)c1ccc(Cl)c(Br)c1` [Compound C13, N-(3-Bromo-4-chloro-phenyl)-N-ethyl-2-piperidin-4-yl-acetamide], the IC50 turned out to be 1200 nM. As for `CCN(C(=O)CC1CCNCC1)c1cccc(Cl)c1Cl` [Compound C6, N-(2,3-Dichloro-phenyl)-N-ethyl-2-piperidin-4-yl-acetamide], the 50% inhibitory concentration (IC50) was more than 1000 nM.
